Experimental data as given in publication PMC7827406, “Structure–Activity Relationship (SAR) Study of Spautin-1 to Entail the Discovery of Novel NEK4 Inhibitors” (International Journal of Molecular Sciences, 2021).
Where two headings read alike, the source gives them in different places.

Legend:
Assay in all cases: biochemical
Design in all cases: Eurofins KinaseProfiler full panel at Km ATP, residual kinase activity (%) relative to DMSO
[1] = biological target: T1, IKKε(h) (Homo sapiens, UniProt Q14164)
T1 construct: gene IKBKE
T1 sequence (Q14164 1-716): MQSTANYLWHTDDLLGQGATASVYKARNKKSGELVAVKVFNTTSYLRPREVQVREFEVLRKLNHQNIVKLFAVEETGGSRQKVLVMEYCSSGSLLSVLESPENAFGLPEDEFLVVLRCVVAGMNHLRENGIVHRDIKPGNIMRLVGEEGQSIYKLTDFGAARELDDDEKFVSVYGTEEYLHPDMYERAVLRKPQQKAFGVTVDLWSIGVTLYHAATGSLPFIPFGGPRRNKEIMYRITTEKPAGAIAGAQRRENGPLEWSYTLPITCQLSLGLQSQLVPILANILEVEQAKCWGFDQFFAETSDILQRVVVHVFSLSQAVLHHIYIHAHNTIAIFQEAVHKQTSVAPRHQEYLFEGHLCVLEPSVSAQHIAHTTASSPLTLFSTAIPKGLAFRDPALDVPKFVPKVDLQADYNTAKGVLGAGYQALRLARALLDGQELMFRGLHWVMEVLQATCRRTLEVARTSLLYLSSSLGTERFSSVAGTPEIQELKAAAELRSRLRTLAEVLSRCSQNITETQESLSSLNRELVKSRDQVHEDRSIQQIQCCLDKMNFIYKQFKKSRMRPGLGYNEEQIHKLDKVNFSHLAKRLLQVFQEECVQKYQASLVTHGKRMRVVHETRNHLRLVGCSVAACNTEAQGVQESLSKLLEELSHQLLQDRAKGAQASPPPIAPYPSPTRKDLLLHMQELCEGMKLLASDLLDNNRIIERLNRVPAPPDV
Method in brief: (§1)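 Two 10 µM single-concentration screens were run: a competition-binding screen, in which DNA-tagged kinase bound to immobilized ligands was quantified by qPCR, and a radiometric activity panel at Km ATP. Each is expressed as residual kinase activity (%).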

[2] = biological target: T2, MOK(h) (Homo sapiens, UniProt Q9UQ07)
T2 sequence (Q9UQ07 1-419): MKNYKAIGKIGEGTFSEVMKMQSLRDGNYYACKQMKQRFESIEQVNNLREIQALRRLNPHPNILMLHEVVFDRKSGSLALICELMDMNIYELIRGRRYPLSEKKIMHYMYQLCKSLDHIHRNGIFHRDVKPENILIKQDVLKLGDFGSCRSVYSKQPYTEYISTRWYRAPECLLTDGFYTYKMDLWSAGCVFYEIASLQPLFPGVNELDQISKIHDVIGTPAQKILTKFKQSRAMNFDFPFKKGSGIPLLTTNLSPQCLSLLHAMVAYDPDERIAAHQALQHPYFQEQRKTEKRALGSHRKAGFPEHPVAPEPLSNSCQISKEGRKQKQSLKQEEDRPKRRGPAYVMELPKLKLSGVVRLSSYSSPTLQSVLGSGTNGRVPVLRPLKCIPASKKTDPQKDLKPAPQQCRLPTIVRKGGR
Method in brief: as §1

[3] = biological target: T3, MST1(h) (Homo sapiens, UniProt Q13043)
T3 construct: gene STK4
T3 sequence (Q13043 1-487): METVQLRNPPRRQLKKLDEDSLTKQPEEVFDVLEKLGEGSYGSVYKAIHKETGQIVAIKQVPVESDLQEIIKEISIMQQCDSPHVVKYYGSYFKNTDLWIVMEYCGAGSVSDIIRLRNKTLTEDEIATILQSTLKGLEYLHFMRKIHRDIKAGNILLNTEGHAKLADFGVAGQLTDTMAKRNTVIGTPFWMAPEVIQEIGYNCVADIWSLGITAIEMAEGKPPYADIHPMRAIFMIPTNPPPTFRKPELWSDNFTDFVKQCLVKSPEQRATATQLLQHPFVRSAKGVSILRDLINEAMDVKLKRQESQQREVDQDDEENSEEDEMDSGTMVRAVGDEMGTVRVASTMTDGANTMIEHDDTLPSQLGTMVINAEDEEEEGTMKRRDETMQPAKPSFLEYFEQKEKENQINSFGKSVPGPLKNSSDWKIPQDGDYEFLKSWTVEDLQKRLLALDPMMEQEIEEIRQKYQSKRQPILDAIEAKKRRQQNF
Method in brief: as §1

[4] = biological target: SLK(h) (Homo sapiens, UniProt Q9H2G2)
Method in brief: as §1

[5] = biological target: STK32C(h) (Homo sapiens, UniProt Q86UX6)
Method in brief: as §1

[6] = biological target: TGFBR2(h) (Homo sapiens, UniProt P37173)
Method in brief: as §1

[7] = biological target: TLK2(h) (Homo sapiens, UniProt Q86UE8)
Method in brief: as §1

[8] = read-out: Residual activity (%) 5ay
[9] = read-out: Residual activity (%) Spautin-1 5aa
[10] = read-out: Residual activity (%) 5at
[11] = read-out: Residual activity (%) 5as

SLK(h), sequence (Q9H2G2 whole entry): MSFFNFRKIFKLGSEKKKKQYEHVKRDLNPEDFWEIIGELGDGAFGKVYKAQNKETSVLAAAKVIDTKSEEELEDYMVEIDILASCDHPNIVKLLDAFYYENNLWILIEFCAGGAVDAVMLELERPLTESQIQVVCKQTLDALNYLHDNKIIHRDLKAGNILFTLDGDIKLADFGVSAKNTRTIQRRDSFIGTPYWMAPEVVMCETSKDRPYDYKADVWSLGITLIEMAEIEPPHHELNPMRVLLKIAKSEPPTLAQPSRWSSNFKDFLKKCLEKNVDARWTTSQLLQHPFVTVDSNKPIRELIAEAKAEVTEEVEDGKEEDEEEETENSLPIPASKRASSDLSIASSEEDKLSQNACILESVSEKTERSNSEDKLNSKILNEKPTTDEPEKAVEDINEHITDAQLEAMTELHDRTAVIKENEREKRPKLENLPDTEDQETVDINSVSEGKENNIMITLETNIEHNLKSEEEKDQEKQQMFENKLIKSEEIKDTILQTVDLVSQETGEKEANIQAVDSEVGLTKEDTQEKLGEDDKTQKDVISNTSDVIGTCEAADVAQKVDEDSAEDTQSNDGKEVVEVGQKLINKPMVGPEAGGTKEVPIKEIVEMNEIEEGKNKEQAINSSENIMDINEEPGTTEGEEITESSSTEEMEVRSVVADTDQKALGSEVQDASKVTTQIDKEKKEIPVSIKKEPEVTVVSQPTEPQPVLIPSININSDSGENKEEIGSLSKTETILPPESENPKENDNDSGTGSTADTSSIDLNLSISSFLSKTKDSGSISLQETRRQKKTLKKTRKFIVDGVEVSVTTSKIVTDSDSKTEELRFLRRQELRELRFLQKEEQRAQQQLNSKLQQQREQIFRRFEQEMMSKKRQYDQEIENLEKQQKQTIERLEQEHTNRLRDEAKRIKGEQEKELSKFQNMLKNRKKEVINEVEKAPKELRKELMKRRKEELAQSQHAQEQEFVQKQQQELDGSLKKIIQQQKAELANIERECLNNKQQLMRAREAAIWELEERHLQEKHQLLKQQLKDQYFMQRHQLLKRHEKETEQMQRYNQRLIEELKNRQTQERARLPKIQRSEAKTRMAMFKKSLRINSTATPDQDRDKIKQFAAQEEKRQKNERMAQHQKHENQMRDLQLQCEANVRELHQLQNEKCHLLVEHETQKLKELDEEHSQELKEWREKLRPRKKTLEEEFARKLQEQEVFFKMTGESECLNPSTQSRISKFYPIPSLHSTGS
TGFBR2(h), sequence (P37173 whole entry): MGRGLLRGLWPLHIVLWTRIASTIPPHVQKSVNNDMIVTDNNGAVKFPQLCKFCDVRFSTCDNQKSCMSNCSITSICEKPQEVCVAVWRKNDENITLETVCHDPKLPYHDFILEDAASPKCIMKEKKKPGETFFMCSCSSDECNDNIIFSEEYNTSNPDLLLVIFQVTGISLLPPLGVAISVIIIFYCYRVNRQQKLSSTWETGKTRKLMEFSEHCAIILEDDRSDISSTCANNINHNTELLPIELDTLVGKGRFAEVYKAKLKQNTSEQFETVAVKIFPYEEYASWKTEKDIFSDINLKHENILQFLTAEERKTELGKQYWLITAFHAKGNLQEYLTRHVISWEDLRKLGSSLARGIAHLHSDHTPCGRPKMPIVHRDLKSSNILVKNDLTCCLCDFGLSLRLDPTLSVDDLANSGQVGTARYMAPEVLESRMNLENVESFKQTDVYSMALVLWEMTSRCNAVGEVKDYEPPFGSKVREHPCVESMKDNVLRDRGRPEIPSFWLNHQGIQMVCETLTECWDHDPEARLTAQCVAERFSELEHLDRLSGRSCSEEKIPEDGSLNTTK
STK32C(h), sequence (Q86UX6 whole entry): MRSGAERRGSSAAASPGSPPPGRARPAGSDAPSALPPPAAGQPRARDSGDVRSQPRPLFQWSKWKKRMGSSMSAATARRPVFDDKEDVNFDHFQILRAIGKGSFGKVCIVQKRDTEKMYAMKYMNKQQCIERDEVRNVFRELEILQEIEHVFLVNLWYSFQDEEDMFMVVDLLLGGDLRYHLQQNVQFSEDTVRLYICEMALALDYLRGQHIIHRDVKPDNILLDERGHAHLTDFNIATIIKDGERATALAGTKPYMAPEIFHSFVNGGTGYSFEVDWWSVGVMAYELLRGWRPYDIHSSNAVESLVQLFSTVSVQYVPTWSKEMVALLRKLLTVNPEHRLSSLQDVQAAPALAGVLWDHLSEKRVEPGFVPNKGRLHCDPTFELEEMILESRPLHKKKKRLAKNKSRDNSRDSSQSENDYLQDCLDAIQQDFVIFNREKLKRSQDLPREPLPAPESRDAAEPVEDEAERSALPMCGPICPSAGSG
TLK2(h), sequence (Q86UE8 whole entry): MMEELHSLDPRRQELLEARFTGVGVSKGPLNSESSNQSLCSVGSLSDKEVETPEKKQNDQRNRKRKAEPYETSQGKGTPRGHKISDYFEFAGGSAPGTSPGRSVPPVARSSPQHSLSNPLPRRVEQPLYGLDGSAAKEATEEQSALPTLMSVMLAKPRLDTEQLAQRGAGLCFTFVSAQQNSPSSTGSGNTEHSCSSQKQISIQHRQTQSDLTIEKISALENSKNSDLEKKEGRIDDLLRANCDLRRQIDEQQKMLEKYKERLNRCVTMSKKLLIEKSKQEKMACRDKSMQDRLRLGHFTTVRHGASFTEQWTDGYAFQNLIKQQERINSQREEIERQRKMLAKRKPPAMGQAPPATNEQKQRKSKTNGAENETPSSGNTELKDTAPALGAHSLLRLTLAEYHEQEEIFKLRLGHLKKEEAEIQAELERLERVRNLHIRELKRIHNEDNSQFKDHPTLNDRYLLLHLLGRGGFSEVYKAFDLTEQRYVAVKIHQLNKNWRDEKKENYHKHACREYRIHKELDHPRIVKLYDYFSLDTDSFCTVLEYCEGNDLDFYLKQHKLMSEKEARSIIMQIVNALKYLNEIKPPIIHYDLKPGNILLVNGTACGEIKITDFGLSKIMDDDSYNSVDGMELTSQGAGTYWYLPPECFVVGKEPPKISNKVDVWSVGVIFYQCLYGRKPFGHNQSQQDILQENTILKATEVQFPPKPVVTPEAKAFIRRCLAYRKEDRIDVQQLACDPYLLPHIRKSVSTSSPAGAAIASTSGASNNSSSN

COc1ccc2ncnc(Nc3cccc(F)c3)c2c1 [5ay, N-(3-Fluorophenyl)-6-Methoxy-4-Quinazolinamine]
remaining activity at 10 µM [1, 8]: 67% | remaining activity at 10 µM [2, 8]: 65% | remaining activity at 10 µM [3, 8]: 70% | remaining activity at 10 µM [4, 8]: 70% | remaining activity at 10 µM [5, 8]: 102% | remaining activity at 10 µM [6, 8]: 96% | remaining activity at 10 µM [7, 8]: 97%

Fc1ccc(CNc2ncnc3ccc(F)cc23)cc1 [5aa, 6-Fluoro-N-(4-fluorobenzyl)-4-Quinazolinamine]
remaining activity at 10 µM [1, 9]: 64% | remaining activity at 10 µM [2, 9]: 89% | remaining activity at 10 µM [3, 9]: 91% | remaining activity at 10 µM [4, 9]: 98% | remaining activity at 10 µM [5, 9]: 106% | remaining activity at 10 µM [6, 9]: 97% | remaining activity at 10 µM [7, 9]: 99%

Fc1ccc2ncnc(NCCc3ccc(Cl)cc3)c2c1 [5at, N-[2-(4-Chlorophenyl)Ethyl]-6-Fluoro-4-Quinazolinamine]
remaining activity at 10 µM [1, 10]: 79% | remaining activity at 10 µM [2, 10]: 100% | remaining activity at 10 µM [3, 10]: 97% | remaining activity at 10 µM [4, 10]: 78% | remaining activity at 10 µM [5, 10]: 106% | remaining activity at 10 µM [6, 10]: 93% | remaining activity at 10 µM [7, 10]: 103%

Fc1ccc(CCNc2ncnc3ccc(F)cc23)cc1 [5as, 6-Fluoro-N-[2-(4-Fluorophenyl)Ethyl]-4-Quinazolinamine]
remaining activity at 10 µM [1, 11]: 72% | remaining activity at 10 µM [2, 11]: 86% | remaining activity at 10 µM [3, 11]: 78% | remaining activity at 10 µM [4, 11]: 77% | remaining activity at 10 µM [5, 11]: 95% | remaining activity at 10 µM [6, 11]: 91% | remaining activity at 10 µM [7, 11]: 98%
